Data on one compound can be found in patent publication US20240309014A1, “MACROCYCLIC COMPOUNDS AND USES THEREOF” (President and Fellows of Harvard College, priority 2017, published 2024).

Assay [1] deals with CD31-positive vessel in FaDu tumor. Briefly: Effect on CD31-positive vessel in the FaDu subcutaneous model (FIG. 13). The settings on record: single i.v. administration at 20, 60, and 180 μg/kg, five days after. It is filed as in vivo, nude mice. As for the experimental part: A human squamous cell carcinoma of the head and neck (SCCHN) cell line FaDu, which had been cultured in an RPMI-1640 medium containing 10% FBS, and penicillin-streptomycin (culture medium), was adjusted to a concentration of 5×10^7 cells/mL with culture medium to prepare a cell suspension. The cell suspension was inoculated in a volume of 100 μL into a subcutaneous part of a right flank of nude mice, 6 weeks of ages (CAnN.Cg-Foxnlnu/CrlCrlj, female, Charles River Laboratories Japan, Inc.). Ten days after cell inoculation, the mice were grouped such that averages of the tumor volumes were substantially equal among the groups. The experiment was conducted on groups each consisting of 6 mice. Each test compound was dissolved in DMSO and a solution was stored in the freezer before use. Immediately before the administration, the stock solution was diluted with saline. […] The number of blood vessels in the whole tumor was quantified by counting the CD31-positive objects using inform 2 software (PerkinElmer Inc.) Area of the tumor region was measured by assessing the hematoxylin-staining area using inform 2 software (PerkinElmer Inc.) The number of blood vessels was normalized by the area of the tumor region. […] The ratios of blood vessel number in the test compound-dosing groups compared to non-treat group were calculated with the below formula: […]

Assay [2] concerns OE21, OE33, TE-8, MES-SA, MES-SA/Dx5-RX1 cell lines. Briefly: In vitro antiproliferative activity, esophageal and uterine cancer cell panel (FIG. 11). It is filed as cell-based, human. The note with it: 72 hours, CellTiter-Glo; values only in FIG. 11. As for the experimental part:
The in vitro antiproliferative assays for Compound (1) were conducted using a small panel of cancer cell lines including human squamous cell carcinoma of the esophagus (OE21, TE-8), human […] of the esophagus (OE33), and human uterine sarcoma (MES-SA, MES-SA-Dx5-R^X1). All cell lines were cultured in RPMI-1640 medium containing 10% FBS, and penicillin-streptomycin (culture medium), in a 5% CO2 incubator (37° C.). To each well of a 96 well plate (Becton, Dickinson and Company, 353219), 75 μL of cell suspension adjusted to a concentration of 4×10^4 cells/mL with the culture medium was added, and the cells were incubated overnight in a 5% CO2 incubator (37° C.). On the next day, 25 μL of Compound (1) in three-fold dilution series suspended in the culture medium was added to each well, and the resultant was incubated for 72 hours in a 5% CO2 incubator (37° C.). Then, cell viability was determined by CellTiter-Glo® Luminescent Cell Viability Assay (Promega) with 2013 EnVision™ Multilabel Reader (Perkin-Elmer, Wellesley, MA). Value of the wells containing cells without adding the test compounds was defined as 100% and the value of the wells containing no cells was defined as 0%. […] The P-gp susceptibility was calculated as the ratio of the IC50 value in MES-SA-Dx5-R^X1 cells, which overexpress P-gp, to the IC50 value in MES-SA cells.
On the technique in general: Cellular ATP, detected with luciferase, serves as a proxy for viable cell number.

The subject of assay [3] is human bladder carcinoma cell line RT112/84. The assay is described as follows: Bladder carcinoma cell line growth inhibition assay, RT112/84. The class given is cell-based. The settings on record: RT112/84, 72 h, 3 days incubation, CellTiter-Glo 2.0. As to the method: In this assay, the growth inhibitory activity of Compound (1) in human bladder carcinoma cell lines RT4, RT112/84, and UM-UC-3 was measured. RT4 and RT112/84 cells were maintained in a RPMI-1640 (FUJIFILM Wako Pure Chemical Corporation, 189-02025) medium containing 10% fetal bovine serum (FBS: SIGMA Life Science, 172012-500ML), and penicillin and streptomycin (FUJIFILM Wako Pure Chemical Corporation, 168-23191) in a 5% CO2 incubator (37° C.). UM-UC-3 cells were maintained in an E-MEM (FUJIFILM Wako Pure Chemical Corporation, 051-07615) medium containing 10% FBS, 1 mM Sodium Pyruvate (FUJIFILM Wako Pure Chemical Corporation, 190-14881), and penicillin and streptomycin in a 5% CO2 incubator (37° C.). To each well of a 96 well plate (Coming, 3904), 90 μL of each cell suspension adjusted to a concentration of 5.55×10^3 cells/mL (RT4 or UM-UC-3) or 3.33×10^4 cells/mL (RT112/84) with the culture medium was added, and the cells were incubated overnight in a 5% CO2 incubator (37° C.). On the next day, 10 μL of Compound (1) in three-fold dilution series suspended in the culture medium was added to each well, and the resultant was incubated for 3 days in a 5% CO2incubator (37° C.). Then, cell viability was determined by CellTiter-Glo® 2.0 Assay (Promega Corporation, G9243) with ARVO-X4 Multimode Plate Reader (Perkin-Elmer, Wellesley, MA). […]

As for `C=C1C[C@@H]2CC[C@@]34C[C@H]5O[C@H]6[C@@H](O3)[C@H]3O[C@H](CC[C@@H]3O[C@H]6C5O4)CC(=O)O[C@@H]3[C@@H](C)[C@@H]4O[C@@H]5C[C@]6(C[C@@H]7O[C@]8(C[C@H](C)[C@@H]9O[C@H](CN)[C@H](O)C[C@@H]9O8)C[C@H](C)[C@@H]7O6)O[C@@H]5C[C@@H]4O[C@H]3C[C@H]3O[C@@H](CC[C@@H]1O2)C[C@@H](C)C3=C` (stereo in doubt) [Compound (1)], the “tumor blood vessel number” value in assay [1] is given as “increased the tumor blood vessel number”. Moreover, the antiproliferative activity result in assay [2] is listed as “potent antiproliferative agent”. In addition, the IC50 – broadly, the concentration that gives 50% inhibition – in assay [3] was 0.0497 nM.
